Earlier results on 49 compounds are cited in US20070213354A1, “Compositions and Methods for the Treatment of Multiple Sclerosis” (AmpliMed Corporation, priority 2006, published 2007).

The test system of one data set is L1210 sensitive. The note with it: murine leukemia L1210 sensitive to standard cytotoxic agents; MTT, continuous exposure; cited from earlier work.
The next data set has as its system L1210 resistant. The conditions noted are these: murine leukemia L1210 resistant, P-glycoprotein producing; MTT, continuous exposure; cited from earlier work.
In a further data set the test system is neonatal rat myocytes. The note with it: 1 hour drug concentration that reduces ATP/protein ratio to 50% of untreated control myocytes; read-out: IC50 Cardiotox; cited from earlier work.

For the compound `CSc1c2ccccc2c2c3c(cccc13)C(=O)N(CCN(C)C)C2=O` [*7-SCH3], the IC50 is 6250 nM with L1210 sensitive, 1220 nM in the data set with L1210 resistant and greater than 50000 nM in the data set with neonatal rat myocytes.

Regarding `CC(=O)Nc1ccc2cc3ccccc3c3c2c1C(=O)N(CCN(C)C)C3=O` [*4-NHCOCH3], the IC50 is 608 nM in the data set on L1210 sensitive, 560 nM in the data set with L1210 resistant and greater than 24300 nM in the data set with neonatal rat myocytes.

Consider `CN(C)CCN1C(=O)c2cccc3cc4ccc(N)cc4c(c23)C1=O` [*10-NH2], for which the IC50 is 3 nM in the data set with L1210 sensitive, 3 nM in the data set with L1210 resistant and 943 nM in the data set on neonatal rat myocytes.

In the case of `CN(C)CCN1C(=O)c2cccc3cc4cccc(Cl)c4c(c23)C1=O` [*11-Cl], the IC50 with L1210 sensitive is 1780 nM; in the data set with L1210 resistant, 617 nM; with neonatal rat myocytes, 8230 nM.

`CN(C)CCN1C(=O)c2cccc3cc4cccc([N+](=O)[O-])c4c(c23)C1=O` [*11-NO2]: the IC50 in the data set with L1210 sensitive was 23 nM; with L1210 resistant it was 50 nM; in the data set with neonatal rat myocytes it was 8650 nM.

For `CN(C)CCN1C(=O)c2cccc3cc4cc(O)ccc4c(c23)C1=O` [*9-OH], the IC50 was 5 nM with L1210 sensitive, 7 nM in the data set on L1210 resistant and 404 nM with neonatal rat myocytes.

For `CN(C)CCN1C(=O)c2cccc3cc4cccc(N)c4c(c23)C1=O` [*11-NH2], the IC50 was 678 nM in the data set with L1210 sensitive, 678 nM with L1210 resistant and 27100 nM with neonatal rat myocytes.

As for `O=C1c2cccc3cc4ccccc4c(c23)C(=O)N1CCN1CCCC1` [2-(CH2)2N(CH2)4], the IC50 with L1210 sensitive was 15 nM; with L1210 resistant, 12 nM; in the data set on neonatal rat myocytes it was 920 nM.

As for `CN(C)CCN1C(=O)c2c(N)ccc3cc4ccccc4c(c23)C1=O` [*4-NH2], the IC50 in the data set on L1210 sensitive is 5 nM; in the data set with L1210 resistant it was 8 nM; in the data set with neonatal rat myocytes, 434 nM.

For the compound `COc1ccc2c3c(c4ccccc4cc13)C(=O)N(CCN(C)C)C2=O` [*6-OCH3], the IC50 is 3 nM in the data set with L1210 sensitive, 4 nM in the data set on L1210 resistant and 799 nM with neonatal rat myocytes.

Take `CN(C)CCN1C(=O)c2cccc3cc4ccc(I)cc4c(c23)C1=O` [*10-I]: the values for the IC50 with L1210 sensitive, in the data set on L1210 resistant and in the data set with neonatal rat myocytes were 312 nM, 52 nM and 4790 nM, respectively.

For the compound `CN(C)CCN1C(=O)c2cccc3c(N)c4ccccc4c(c23)C1=O` [*7-NH2], the results for the IC50 in the data set with L1210 sensitive, with L1210 resistant and in the data set on neonatal rat myocytes were 5 nM, 7 nM and 1950 nM, respectively.

`CC(=O)Nc1cccc2c3c4c(cccc4cc12)C(=O)N(CCN(C)C)C3=O` [*8-NHCOCH3]: the IC50 is 485 nM with L1210 sensitive, 510 nM in the data set with L1210 resistant and 12100 nM with neonatal rat myocytes.

In the case of `CN(C)CCN1C(=O)c2cccc3cc4cc(Cl)ccc4c(c23)C1=O` [*9-Cl], the IC50 in the data set on L1210 sensitive is 8 nM; in the data set on L1210 resistant, 8 nM; with neonatal rat myocytes it was 1540 nM.

Turning to `CC(=O)Nc1cccc2cc3cccc4c3c(c12)C(=O)N(CCN(C)C)C4=O` [*11-NHCOCH3], the IC50 was 243 nM with L1210 sensitive, 2430 nM in the data set with L1210 resistant and greater than 22500 nM in the data set with neonatal rat myocytes.

Regarding `CN(C)CCN1C(=O)c2ccc(S(C)(=O)=O)c3cc4ccccc4c(c23)C1=O` [*6-SO2CH3], the figures for the IC50 in the data set with L1210 sensitive, with L1210 resistant and with neonatal rat myocytes were 35 nM, 35 nM and 2320 nM, respectively.

For the compound `CN(C)CCCN1C(=O)c2cccc3cc4ccccc4c(c23)C1=O` [2-(CH2)3N(CH3)2], the IC50 in the data set on L1210 sensitive is 54 nM; in the data set with L1210 resistant, 82 nM; with neonatal rat myocytes, 11400 nM.

`CN(C)CCNc1ccc2cc3ccccc3c3c2c1C(=O)N(CCN(C)C)C3=O` [*4-NH(CH2)2N(CH3)2]: the IC50 is 210 nM in the data set on L1210 sensitive, 245 nM in the data set on L1210 resistant and 734 nM in the data set on neonatal rat myocytes.

Take `COc1ccc2c3c4c(cccc4cc2c1)C(=O)N(CCN(C)C)C3=O` [*9-OCH3]: the figures for the IC50 in the data set on L1210 sensitive, in the data set with L1210 resistant and in the data set on neonatal rat myocytes were 54 nM, 54 nM and less than 2600 nM, respectively.

In the case of `CN(C)CCN1C(=O)c2cc(NC(=O)C(C)(C)C)cc3cc4ccccc4c(c23)C1=O` [*5-NHCOC(CH3)3], the IC50 in the data set on L1210 sensitive is 44 nM; with L1210 resistant, 15 nM; with neonatal rat myocytes, 662 nM.

Regarding `CCN1CCCC1CN1C(=O)c2cccc3cc4ccccc4c(c23)C1=O` (centres unmarked) [2-CH2-(1-ethyl-2-pyrrolidinyl)], the values for the IC50 with L1210 sensitive, in the data set on L1210 resistant and in the data set on neonatal rat myocytes were 36 nM, 55 nM and 15200 nM, respectively.

As to `CCN1CCCC(N2C(=O)c3cccc4cc5ccccc5c(c34)C2=O)C1` (centres unmarked) [2-(1-ethyl-3-piperidinyl)], the IC50 is 635 nM with L1210 sensitive, 609 nM in the data set on L1210 resistant and 8760 nM in the data set with neonatal rat myocytes.

Regarding `CN(C)CCN1C(=O)c2ccc(N)c3cc4ccccc4c(c23)C1=O` [*6-NH2], the results for the IC50 with L1210 sensitive, with L1210 resistant and with neonatal rat myocytes were 5 nM, 27 nM and 1490 nM, respectively.

For the compound `O=C1c2cccc3cc4ccccc4c(c23)C(=O)N1Cc1ccccn1` [2-CH2-2-pyridyl], the IC50 with L1210 sensitive was 26700 nM; in the data set on L1210 resistant it was 26700 nM; in the data set with neonatal rat myocytes, greater than 25000 nM.

Take `CN(C)CCOc1ccc2c3c(c4ccccc4cc13)C(=O)N(CCN(C)C)C2=O` [*6-O(CH2)2N(CH3)2]: the IC50 is 0.2 nM with L1210 sensitive, 1 nM in the data set on L1210 resistant and 5440 nM in the data set with neonatal rat myocytes.

Turning to `CNCCN1C(=O)c2cccc3cc4ccccc4c(c23)C1=O` [2-(CH2)2NHCH3], the IC50 was 10 nM in the data set with L1210 sensitive, 21 nM in the data set with L1210 resistant and 7060 nM in the data set with neonatal rat myocytes.

As to `CN(C)CCN1C(=O)c2cccc3c(Cl)c4ccccc4c(c23)C1=O` [*7-Cl], the values for the IC50 in the data set on L1210 sensitive, in the data set with L1210 resistant and with neonatal rat myocytes were 154 nM, 206 nM and 10800 nM, respectively.

In the case of `CN(C)CCN1C(=O)c2cccc3cc4ccc(C#N)cc4c(c23)C1=O` [*10-CN], the IC50 with L1210 sensitive was 15 nM; with L1210 resistant, 13 nM; in the data set with neonatal rat myocytes it was 105 nM.

Consider `CN(C)CCNc1c2ccccc2c2c3c(cccc13)C(=O)N(CCN(C)C)C2=O` [*7-NH(CH2)2N(CH3)2], for which the IC50 with L1210 sensitive was 524 nM; in the data set with L1210 resistant it was 524 nM; in the data set on neonatal rat myocytes it was 291000 nM.

Regarding `CN(C)CCN1C(=O)c2cccc3cc4ccccc4c(c23)C1=O` [2-(CH2)2N(CH3)2], the IC50 was 7 nM in the data set with L1210 sensitive, 7 nM in the data set on L1210 resistant and 1980 nM in the data set on neonatal rat myocytes.

Regarding `CC(=O)Nc1ccc2cc3cccc4c3c(c2c1)C(=O)N(CCN(C)C)C4=O` [*10-NHCOCH3], the figures for the IC50 in the data set on L1210 sensitive, in the data set on L1210 resistant and with neonatal rat myocytes were 49 nM, 219 nM and 7790 nM, respectively.

Turning to `O=C1c2cccc3cc4ccccc4c(c23)C(=O)N1CCc1ccccn1` [2-(CH2)2-2-pyridyl], the values for the IC50 with L1210 sensitive, with L1210 resistant and with neonatal rat myocytes were 6440 nM, 15500 nM and greater than 25000 nM, respectively.

As to `Cc1c2ccccc2c2c3c(cccc13)C(=O)N(CCN(C)C)C2=O` [*7-CH3], the IC50 in the data set with L1210 sensitive is 34 nM; in the data set with L1210 resistant, 70 nM; in the data set on neonatal rat myocytes, 1680 nM.

In the case of `CCOc1c2ccccc2c2c3c(cccc13)C(=O)N(CCN(C)C)C2=O` [*7-OC2H5], the values for the IC50 in the data set on L1210 sensitive, in the data set with L1210 resistant and with neonatal rat myocytes were 63 nM, 50 nM and 5300 nM, respectively.

On to `CNCCN1C(=O)c2ccc(OC)c3cc4ccccc4c(c23)C1=O` [2-(CH2)2NHCH3; 6-OCH3], for which the figures for the IC50 in the data set on L1210 sensitive, in the data set with L1210 resistant and in the data set with neonatal rat myocytes were 41 nM, 27 nM and 8100 nM, respectively.

In the case of `CCOc1ccc2cc3cccc4c3c(c2c1)C(=O)N(CCN(C)C)C4=O` [*10-OC2H5], the IC50 was 25 nM in the data set with L1210 sensitive, 50 nM with L1210 resistant and 11300 nM in the data set with neonatal rat myocytes.

Take `CN(C)CCN1C(=O)c2cccc3cc4ccc(O)cc4c(c23)C1=O` [*10-OH]: the IC50 is 189 nM in the data set with L1210 sensitive, 540 nM in the data set on L1210 resistant and greater than 27000 nM in the data set on neonatal rat myocytes.

Take `CCc1ccc2c3c(c4ccccc4cc13)C(=O)N(CCN(C)C)C2=O` [*6-C2H5]: the IC50 in the data set with L1210 sensitive is 183 nM; in the data set with L1210 resistant, 235 nM; with neonatal rat myocytes, 7830 nM.

Turning to `O=C1c2cccc3cc4ccccc4c(c23)C(=O)N1Cc1cccnc1` [2-CH2-3-pyridyl], the results for the IC50 in the data set with L1210 sensitive, with L1210 resistant and in the data set with neonatal rat myocytes were 1870 nM, 2670 nM and greater than 25000 nM, respectively.

As to `CN(C)CCN1C(=O)c2cccc3cc4ccc([N+](=O)[O-])cc4c(c23)C1=O` [*10-NO2], the IC50 in the data set on L1210 sensitive is 25 nM; in the data set with L1210 resistant, 25 nM; in the data set with neonatal rat myocytes, 801 nM.

With `CN(C)CCN1C(=O)c2ccc(N(C)C)c3cc4ccccc4c(c23)C1=O` [*6-N(CH3)2], the 50% inhibitory concentration (IC50) was 23 nM in the data set with L1210 sensitive, 96 nM with L1210 resistant and 46600 nM in the data set with neonatal rat myocytes.

Consider `CN(C)CCN1C(=O)c2c(Cl)ccc3cc4ccccc4c(c23)C1=O` [*4-Cl], for which the values for the IC50 with L1210 sensitive, with L1210 resistant and in the data set with neonatal rat myocytes were 10 nM, 15 nM and 900 nM, respectively.

On to `O=C1c2cccc3cc4ccccc4c(c23)C(=O)N1CCN1CCOCC1` [2-(CH2)2—N-morpholinyl], for which the IC50 with L1210 sensitive was 512 nM; in the data set on L1210 resistant it was 512 nM; in the data set on neonatal rat myocytes, greater than 25000 nM.

Take `CN(C)CCN1C(=O)c2cccc3cc4cccc(O)c4c(c23)C1=O` [*11-OH]: the values for the IC50 with L1210 sensitive, in the data set on L1210 resistant and with neonatal rat myocytes were 189 nM, 189 nM and 15400 nM, respectively.

As to `Cc1ccc2c3c(c4ccccc4cc13)C(=O)N(CCN(C)C)C2=O` [*6-CH3], the IC50 is 7 nM in the data set with L1210 sensitive, 27 nM in the data set with L1210 resistant and 989 nM in the data set with neonatal rat myocytes.

With `O=C1c2cccc3cc4ccccc4c(c23)C(=O)N1CCNCCO` [2-(CH2)2NH(CH2)2OH], the results for the IC50 in the data set with L1210 sensitive, in the data set with L1210 resistant and in the data set with neonatal rat myocytes were 18 nM, 41 nM and 943 nM, respectively.

`CN(C)CCN1C(=O)c2ccc(Cl)c3cc4ccccc4c(c23)C1=O` [*6-Cl]: the IC50 in the data set on L1210 sensitive is 77 nM; in the data set on L1210 resistant, 64 nM; in the data set on neonatal rat myocytes, 4110 nM.

As to `CSc1ccc2c3c(c4ccccc4cc13)C(=O)N(CCN(C)C)C2=O` [*6-SCH3], the IC50 with L1210 sensitive was 0.4 nM; with L1210 resistant, 0.5 nM; in the data set with neonatal rat myocytes, 3000 nM.

Regarding `CN(C)CCN1C(=O)c2cccc3cc4ccc(F)cc4c(c23)C1=O` [*10-F], the figures for the IC50 with L1210 sensitive and with neonatal rat myocytes were 8 nM and 456 nM, respectively.

Broadly, the IC50 is the concentration that gives 50% inhibition.
